Assay results reported in paper PMC5218480 (PLoS ONE, 2017).

System: MV-4-11 cells
Assay: Gene expression microarray analysis (Affymetrix PrimeView) and GSEA
Type: cell-based, human
Design: RFU PODN (11730768_x_at) / Fold change /veh PODN (11730768_x_at) / RFU LINC00158 (11744669_a_at) / Fold change /veh LINC00158 (11744669_a_at) / RFU DUSP10 (11751237_a_at) / Fold change /veh DUSP10 (11751237_a_at) / RFU ID3 (11757404_x_at) / Fold change /veh ID3 (11757404_x_at) / RFU PLEKHG5 (11737974_s_at) / Fold change /veh PLEKHG5 (11737974_s_at) / RFU LRRC4B (11730491_at) / Fold change /veh LRRC4B (11730491_at) / RFU GIMAP4 (11747438_a_at) / Fold change /veh GIMAP4 (11747438_a_at) / RFU KRT8 (11758183_x_at) / Fold change /veh KRT8 (11758183_x_at) / RFU CNN1 (11734310_a_at) / Fold change /veh CNN1 (11734310_a_at) / RFU VPS37D (11726825_at) / Fold change /veh VPS37D (11726825_at) / RFU C10orf10 (11716522_x_at) / Fold change /veh C10orf10 (11716522_x_at) / RFU KIR2DL2 /// KIR2DL4 /// KIR2DL5A /// KIR2DL5B /// KIR2DS1 /// KIR2DS2 /// KIR2DS3 /// KIR2DS4 /// KIR3DL3 /// KIR3DL3 /// KIR3DS1 (11738374_at) / Fold change /veh KIR2DL2 /// KIR2DL4 /// KIR2DL5A /// KIR2DL5B /// KIR2DS1 /// KIR2DS2 /// KIR2DS3 /// KIR2DS4 /// KIR3DL3 /// KIR3DL3 /// KIR3DS1 (11738374_at) / RFU C1QL1 (11718748_at) / Fold change /veh C1QL1 (11718748_at) / RFU TMPRSS4 (11747572_a_at) / Fold change /veh TMPRSS4 (11747572_a_at) / RFU HAMP (11756126_x_at) / Fold change /veh HAMP (11756126_x_at) / RFU RNFT2 (11725882_a_at) / Fold change /veh RNFT2 (11725882_a_at) / RFU NR4A2 (11747474_a_at) / Fold change /veh NR4A2 (11747474_a_at) / RFU ABCC12 (11746883_a_at) / Fold change /veh ABCC12 (11746883_a_at) / RFU TMEM136 (11760407_x_at) / Fold change /veh TMEM136 (11760407_x_at) / RFU CLDN22 /// WWC2 (11732394_at) / Fold change /veh CLDN22 /// WWC2 (11732394_at) / RFU HLA-DPB1 (11760878_x_at) / Fold change /veh HLA-DPB1 (11760878_x_at) / RFU SPINT1 (11716480_a_at) / Fold change /veh SPINT1 (11716480_a_at) / RFU GAP43 (11754022_s_at) / Fold change /veh GAP43 (11754022_s_at) / RFU A4GNT (11735810_at) / Fold change /veh A4GNT (11735810_at) / RFU PRB3 (11715151_x_at) / Fold change /veh PRB3 (11715151_x_at) / RFU TUBB4B (11761932_at) / Fold change /veh TUBB4B (11761932_at) / RFU CAPN14 (11732068_a_at) / Fold change /veh CAPN14 (11732068_a_at) / RFU TMCC2 (11721928_a_at) / Fold change /veh TMCC2 (11721928_a_at) / RFU IRGQ (11745062_a_at) / Fold change /veh IRGQ (11745062_a_at) / RFU FAM174B (11720279_a_at) / Fold change /veh FAM174B (11720279_a_at) / RFU TMPRSS4 (11748680_a_at) / Fold change /veh TMPRSS4 (11748680_a_at) / RFU FAM212B (11763350_a_at) / Fold change /veh FAM212B (11763350_a_at) / RFU PLEKHG5 (11743358_a_at) / Fold change /veh PLEKHG5 (11743358_a_at) / RFU ZSCAN30 (11745921_a_at) / Fold change /veh ZSCAN30 (11745921_a_at) / RFU CMKLR1 (11741424_a_at) / Fold change /veh CMKLR1 (11741424_a_at) / RFU LOC101060620 /// MAPK8IP1 (11723275_at) / Fold change /veh LOC101060620 /// MAPK8IP1 (11723275_at) / RFU SPTSSB (11747773_x_at) / Fold change /veh SPTSSB (11747773_x_at) / RFU PRSS12 (11739890_at) / Fold change /veh PRSS12 (11739890_at) / RFU BIN1 (11741810_x_at) / Fold change /veh BIN1 (11741810_x_at) / RFU WNT11 (11732464_a_at) / Fold change /veh WNT11 (11732464_a_at) / RFU C10orf10 (11716521_a_at) / Fold change /veh C10orf10 (11716521_a_at) / RFU C5orf56 (11738089_at) / Fold change /veh C5orf56 (11738089_at) / RFU CYB561 (11721691_x_at) / Fold change /veh CYB561 (11721691_x_at) / RFU ANKRD19P (11752326_a_at) / Fold change /veh ANKRD19P (11752326_a_at) / RFU OR2T12 /// OR2T33 /// OR2T8 (11738714_s_at) / Fold change /veh OR2T12 /// OR2T33 /// OR2T8 (11738714_s_at) / RFU VCAN (11748164_a_at) / Fold change /veh VCAN (11748164_a_at) / RFU JSRP1 (11732532_at) / Fold change /veh JSRP1 (11732532_at) / RFU KRTAP10-11 (11738290_x_at) / Fold change /veh KRTAP10-11 (11738290_x_at) / RFU MYO3A (11730013_a_at) / Fold change /veh MYO3A (11730013_a_at) / RFU EBF3 (11725865_a_at) / Fold change /veh EBF3 (11725865_a_at) / RFU CAMK2N1 (11719241_x_at) / Fold change /veh CAMK2N1 (11719241_x_at) / RFU C5orf56 (11738088_a_at) / Fold change /veh C5orf56 (11738088_a_at) / RFU OLFML3 (11715873_a_at) / Fold change /veh OLFML3 (11715873_a_at) / RFU LOC100653217 /// NTM (11731650_a_at) / Fold change /veh LOC100653217 /// NTM (11731650_a_at) / RFU MAPK11 (11762145_a_at) / Fold change /veh MAPK11 (11762145_a_at) / RFU FIZ1 (11724087_x_at) / Fold change /veh FIZ1 (11724087_x_at) / RFU OASL (11726364_x_at) / Fold change /veh OASL (11726364_x_at) / RFU SOX15 (11748057_x_at) / Fold change /veh SOX15 (11748057_x_at) / RFU CD79A (11719716_a_at) / Fold change /veh CD79A (11719716_a_at) / RFU HIST1H1D (11736915_at) / Fold change /veh HIST1H1D (11736915_at) / RFU CASKIN2 (11723855_a_at) / Fold change /veh CASKIN2 (11723855_a_at) / RFU LOC730098 (11760151_x_at) / Fold change /veh LOC730098 (11760151_x_at) / RFU OR4N2 (11742367_at) / Fold change /veh OR4N2 (11742367_at) / RFU PRRT2 (11749266_a_at) / Fold change /veh PRRT2 (11749266_a_at) / RFU SNX32 (11753110_a_at) / Fold change /veh SNX32 (11753110_a_at) / RFU CDHR5 (11726645_a_at) / Fold change /veh CDHR5 (11726645_a_at) / RFU RCAN1 (11760418_a_at) / Fold change /veh RCAN1 (11760418_a_at) / RFU FAM167A (11723789_a_at) / Fold change /veh FAM167A (11723789_a_at) / RFU FAM26E (11764081_at) / Fold change /veh FAM26E (11764081_at) / RFU ISYNA1 (11749810_s_at) / Fold change /veh ISYNA1 (11749810_s_at) / RFU ACY1 (11761880_at) / Fold change /veh ACY1 (11761880_at) / RFU 11764098_at / Fold change /veh 11764098_at / RFU SAMD14 (11745864_x_at) / Fold change /veh SAMD14 (11745864_x_at) / RFU NPB (11741838_a_at) / Fold change /veh NPB (11741838_a_at) / RFU TMPRSS6 (11731388_a_at) / Fold change /veh TMPRSS6 (11731388_a_at) / RFU KRTAP10-2 (11738614_at) / Fold change /veh KRTAP10-2 (11738614_at) / RFU ARHGAP8 /// PRR5-ARHGAP8 (11727945_x_at) / Fold change /veh ARHGAP8 /// PRR5-ARHGAP8 (11727945_x_at) / RFU KRTAP5-7 /// NADSYN1 (11734609_at) / Fold change /veh KRTAP5-7 /// NADSYN1 (11734609_at) / RFU RASL12 (11751679_a_at) / Fold change /veh RASL12 (11751679_a_at) / RFU CDKN2B (11736163_a_at) / Fold change /veh CDKN2B (11736163_a_at) / RFU PRF1 (11729649_at) / Fold change /veh PRF1 (11729649_at) / RFU, ZNF638 /// ZNF638-IT1 / Fold change vs veh, ZNF638 /// ZNF638-IT1 / RFU, PANK3 / Fold change vs veh, PANK3 / RFU, SH3YL1 / Fold change vs veh, SH3YL1 / RFU, ZEB2 / Fold change vs veh, ZEB2 / RFU, NRIP1 / Fold change vs veh, NRIP1 / RFU, PTTG1IP / Fold change vs veh, PTTG1IP / RFU, CAPN2 / Fold change vs veh, CAPN2 / RFU, MED14 / Fold change vs veh, MED14 / RFU, SNORA58 / Fold change vs veh, SNORA58 / RFU, C1orf63 / Fold change vs veh, C1orf63 / RFU, LRRFIP1 / Fold change vs veh, LRRFIP1 / RFU, NDUFAF7 / Fold change vs veh, NDUFAF7 / RFU, SLC12A2 / Fold change vs veh, SLC12A2 / RFU, IBTK / Fold change vs veh, IBTK / RFU, ESF1 / Fold change vs veh, ESF1 / Fold change vs veh, TMEM50B / RFU, TAOK1 / Fold change vs veh, TAOK1 / RFU, ACBD3 / Fold change vs veh, ACBD3 / RFU, TMA16 / Fold change vs veh, TMA16 / RFU, RWDD3 / Fold change vs veh, RWDD3 / RFU, BCAT1 / Fold change vs veh, BCAT1 / RFU, EDEM3 / Fold change vs veh, EDEM3 / RFU, TMEM33 / Fold change vs veh, TMEM33 / RFU, WDR75 / Fold change vs veh, WDR75 / RFU, AHCTF1 / Fold change vs veh, AHCTF1 / RFU, TFRC / Fold change vs veh, TFRC / RFU, ZDHHC17 / Fold change vs veh, ZDHHC17 / RFU, NOM1 / Fold change vs veh, NOM1 / RFU, ARL8B / Fold change vs veh, ARL8B / RFU, ZBTB11 / Fold change vs veh, ZBTB11 / RFU, TAMM41 / Fold change vs veh, TAMM41 / RFU, KIAA1704 /// LOC100996395 / Fold change vs veh, KIAA1704 /// LOC100996395 / RFU, ING1 / Fold change vs veh, ING1 / RFU, TRMT61B / Fold change vs veh, TRMT61B / RFU, FUBP3 / Fold change vs veh, FUBP3 / RFU, TP53 / Fold change vs veh, TP53 / RFU, TNKS2 / Fold change vs veh, TNKS2 / RFU, ZFP14 / Fold change vs veh, ZFP14 / RFU, ACTR2 / Fold change vs veh, ACTR2 / RFU, PPP3R1 / Fold change vs veh, PPP3R1 / RFU, PIK3R1 / Fold change vs veh, PIK3R1 / RFU, HNRNPA1 / Fold change vs veh, HNRNPA1 / RFU, RNF170 / Fold change vs veh, RNF170 / RFU, ZNF28 / Fold change vs veh, ZNF28 / RFU, RNGTT / Fold change vs veh, RNGTT / RFU, OGT / Fold change vs veh, OGT / RFU, BRD1 / Fold change vs veh, BRD1 / RFU, MARS / Fold change vs veh, MARS / RFU, ZNF655 / Fold change vs veh, ZNF655 / RFU, FAHD1 / Fold change vs veh, FAHD1 / RFU, BDP1 / Fold change vs veh, BDP1 / RFU, LRRCC1 / Fold change vs veh, LRRCC1 / RFU, ARID1A / Fold change vs veh, ARID1A / RFU, ZNF146 / Fold change vs veh, ZNF146 / RFU, ZNF330 / Fold change vs veh, ZNF330 / RFU, GPN3 / Fold change vs veh, GPN3 / RFU, C9orf123 / Fold change vs veh, C9orf123 / RFU, N4BP2L2 / Fold change vs veh, N4BP2L2 / RFU, ARFIP1 / Fold change vs veh, ARFIP1 / RFU, FAM179B / Fold change vs veh, FAM179B / RFU, BCL10 / Fold change vs veh, BCL10 / RFU, UHRF1BP1L / Fold change vs veh, UHRF1BP1L / RFU, BET1 / Fold change vs veh, BET1 / RFU, CNOT2 / Fold change vs veh, CNOT2 / RFU, ZNF268 / Fold change vs veh, ZNF268 / Fold change vs veh, ZNF507 / RFU, DGCR2 / Fold change vs veh, DGCR2 / RFU, WDSUB1 / Fold change vs veh, WDSUB1 / Fold change vs veh, HSP90B1 /// MIR3652 / RFU, ADSS / Fold change vs veh, ADSS / RFU, GK / Fold change vs veh, GK / RFU, ZNF148 / Fold change vs veh, ZNF148 / RFU, TAF9 / Fold change vs veh, TAF9 / RFU, SLC1A5 / Fold change vs veh, SLC1A5 / RFU, SLMO2 / Fold change vs veh, SLMO2 / RFU, ABCC4 / Fold change vs veh, ABCC4 / RFU, LOC101060439 /// RAP1B / Fold change vs veh, LOC101060439 /// RAP1B / RFU, RFX7 / Fold change vs veh, RFX7 / RFU, GTPBP10 / Fold change vs veh, GTPBP10 / RFU, CNEP1R1 / Fold change vs veh, CNEP1R1 / RFU, BIVM-ERCC5 /// ERCC5 / Fold change vs veh, BIVM-ERCC5 /// ERCC5 / RFU, ILF3 / Fold change vs veh, ILF3 / RFU 11762660_at / Fold change /veh 11762660_at / RFU VCAN (11757783_s_at) / Fold change /veh VCAN (11757783_s_at) / RFU DDX43 (11728927_at) / Fold change /veh DDX43 (11728927_at) / RFU KRT8 (11758188_x_at) / Fold change /veh KRT8 (11758188_x_at) / RFU NKD1 (11759106_at) / Fold change /veh NKD1 (11759106_at) / RFU SRD5A1 (11742802_a_at) / Fold change /veh SRD5A1 (11742802_a_at) / RFU TPSAB1 /// TPSB2 (11721975_s_at) / Fold change /veh TPSAB1 /// TPSB2 (11721975_s_at) / RFU GSTM3 (11746129_a_at) / Fold change /veh GSTM3 (11746129_a_at) / RFU IL23R (11737362_x_at) / Fold change /veh IL23R (11737362_x_at) / RFU TMEM51 (11727254_a_at) / Fold change /veh TMEM51 (11727254_a_at) / RFU PIWIL2 (11732686_x_at) / Fold change /veh PIWIL2 (11732686_x_at) / RFU ORM1 (11744905_x_at) / Fold change /veh ORM1 (11744905_x_at) / RFU CCDC152 (11743942_at) / Fold change /veh CCDC152 (11743942_at) / RFU ECM1 (11717891_a_at) / Fold change /veh ECM1 (11717891_a_at) / RFU IL23R (11748794_a_at) / Fold change /veh IL23R (11748794_a_at) / RFU TNFAIP8L3 (11732012_x_at) / Fold change /veh TNFAIP8L3 (11732012_x_at) / RFU MBOAT4 (11741988_at) / Fold change /veh MBOAT4 (11741988_at) / RFU 11764193_at / Fold change /veh 11764193_at / RFU TMEM53 (11763286_at) / Fold change /veh TMEM53 (11763286_at) / RFU MAGEB2 (11727129_at) / Fold change /veh MAGEB2 (11727129_at) / RFU TMEM200A (11744735_a_at) / Fold change /veh TMEM200A (11744735_a_at) / RFU CCDC152 (11751479_a_at) / Fold change /veh CCDC152 (11751479_a_at) / RFU FAM211A (11726209_a_at) / Fold change /veh FAM211A (11726209_a_at) / RFU RGS16 (11746705_a_at) / Fold change /veh RGS16 (11746705_a_at) / RFU VCAN (11755009_s_at) / Fold change /veh VCAN (11755009_s_at) / RFU RHOB (11743442_s_at) / Fold change /veh RHOB (11743442_s_at) / RFU RGS16 (11720943_a_at) / Fold change /veh RGS16 (11720943_a_at) / RFU RGS16 (11720944_at) / Fold change /veh RGS16 (11720944_at) / RFU, VPS4B / Fold change vs veh, VPS4B / RFU, CREB1 / Fold change vs veh, CREB1 / RFU, DNAJC13 / Fold change vs veh, DNAJC13 / RFU, GNAQ / Fold change vs veh, GNAQ / RFU, CDK5R1 / Fold change vs veh, CDK5R1 / RFU, ZRANB3 / Fold change vs veh, ZRANB3 / RFU, CUL4A / Fold change vs veh, CUL4A / RFU, CCNY / Fold change vs veh, CCNY / RFU, UFL1 / Fold change vs veh, UFL1 / RFU, COG3 / Fold change vs veh, COG3 / RFU, DIAPH2 / Fold change vs veh, DIAPH2 / RFU, SKA2 / Fold change vs veh, SKA2 / RFU, AFF3 / Fold change vs veh, AFF3 / RFU, LMF1 / Fold change vs veh, LMF1 / RFU, IPO11 / Fold change vs veh, IPO11 / RFU, DFFB / Fold change vs veh, DFFB / RFU, FOXP1 / Fold change vs veh, FOXP1 / RFU, CARD8 / Fold change vs veh, CARD8 / RFU, STRN3 / Fold change vs veh, STRN3 / RFU, ADK / Fold change vs veh, ADK / RFU, RASSF2 / Fold change vs veh, RASSF2 / RFU, WIPF1 / Fold change vs veh, WIPF1 / RFU, LARP1B / Fold change vs veh, LARP1B / RFU, RASA1 / Fold change vs veh, RASA1 / RFU, RB1 / Fold change vs veh, RB1 / RFU, PPFIA1 / Fold change vs veh, PPFIA1 / RFU, MAT2A / Fold change vs veh, MAT2A / RFU, CCT5 / Fold change vs veh, CCT5 / RFU, WDR92 / Fold change vs veh, WDR92 / RFU, CUX1 / Fold change vs veh, CUX1 / RFU, TTC7A / Fold change vs veh, TTC7A / RFU, TMEM135 / Fold change vs veh, TMEM135 / RFU, DEPTOR / Fold change vs veh, DEPTOR / RFU, CPM / Fold change vs veh, CPM / RFU, DNAJB6 / Fold change vs veh, DNAJB6 / RFU, CACNA2D3 / Fold change vs veh, CACNA2D3 / RFU, DTX4 / Fold change vs veh, DTX4 / RFU, TFCP2 / Fold change vs veh, TFCP2 / RFU, GMCL1 /// GMCL1P1 / Fold change vs veh, GMCL1 /// GMCL1P1 / RFU, AEBP2 / Fold change vs veh, AEBP2 / RFU, SNHG1 /// SNORD22 /// SNORD25 /// SNORD26 /// SNORD27 /// SNORD28 /// SNORD29 /// SNORD31 / Fold change vs veh, SNHG1 /// SNORD22 /// SNORD25 /// SNORD26 /// SNORD27 /// SNORD28 /// SNORD29 /// SNORD31 / Fold change (Aza/veh), C12orf56 (ProbeSet 11735607_a_at) / Fold change (ACY-1035/veh), C12orf56 (ProbeSet 11735607_a_at) / Fold change (Aza/veh), FGFR1OP (ProbeSet 11751329_s_at) / Fold change (ACY-1035/veh), FGFR1OP (ProbeSet 11751329_s_at) / Fold change (Aza/veh), VPS36 (ProbeSet 11739960_a_at) / Fold change (ACY-1035/veh), VPS36 (ProbeSet 11739960_a_at) / RFU SYPL1 (11715823_x_at) / Fold change /veh SYPL1 (11715823_x_at) / RFU IGFBP7 (11715501_s_at) / Fold change /veh IGFBP7 (11715501_s_at) / RFU REEP3 (11722064_at) / Fold change /veh REEP3 (11722064_at) / RFU IGLL1 (11728026_x_at) / Fold change /veh IGLL1 (11728026_x_at): dose or concentration left out as unconfirmed
Conditions: MV-4-11 cells, 48 hours

Nc1ccc(-c2cccs2)cc1NC(=O)c1ccc2c(c1)cc(C1CC1)n2CCN1CCOCC1 [ACY-1035]
Fold change /veh ANKRD19P (11752326_a_at): 1.02
